{
  "source": "patent US20250361217A1",
  "about": "“FATTY ACID COMPOUNDS” (University of Pittsburgh - Of the Commonwealth System of …, priority 2022, published 2025)",
  "system": "HFD model in C57BL/6J mice",
  "assay": "Liver histology (H&E) scores of steatosis, ballooning, inflammation in HFD mice",
  "assay_type": "in vivo",
  "details": "50 mg/kg",
  "text": "Male C57BL/6J mice were purchased from Jackson Laboratory (Bar Harbor, ME, USA). Mice were acclimated for a week before being randomized to receive either a low-fat diet (LFD) or a high-fat diet (HFD) purchased from Research Diets (New Brunswick, NJ, USA). Obesity was induced by the HFD (D12492, with 60% of the adjusted calories derived from fat) for 16 weeks beginning at age of 8 weeks. Age-matched controls were maintained on a LFD (D12450J, matching the sucrose level of D12492). While maintaining the diet, mice under HFD were divided into 4 groups (n=8 per group) and were treated every 2 days by oral gavage for 7 weeks with 100 μl of 11D3 (50 mg/kg), 11U3 (50 mg/kg), or 11U3-2M (50 mg/kg) formulated in a solution of 2:1 of polyethylene glycol (Fisher Scientific, PEG400 #p167-1) and saline, containing 1.5% of octanoic acid (TCI, #00027). Control groups received 100 μl of PEG400/saline/octanoic acid as the vehicle (Veh). LFD mice were divided into 2 groups (n=8 per group) and treated with veh or 11D3 (50 mg/kg) to detect any effect of natural FuFA in LFD. […] Food intake, water consumption, and mouse weight were monitored every week. […]\nThe fixed Liver tissues embedded in paraffin were cut into 4 μm sections. […] Quantifications and scores of liver steatosis, ballooning, and inflammation were performed blindly by a pathologist based on 3 parameters—steatosis, inflammation, hepatocyte degeneration.",
  "data": [
    {"smiles": "CCCc1ccc(CCCCCCCCCC(C)(C)C(=O)O)o1", "note": "[11U3-2M, 2,2-Dimethyl-11-(5-propylfuran-2-yl)undecanoic acid]", "values": [
      {"measurement": "ballooning degeneration of hepatocytes vs HFD+veh", "value": "significantly alleviated"},
      {"measurement": "liver steatosis vs HFD+veh", "value": "significantly alleviated"}
    ]}
  ]
}
